Data: patent US9902728B2, “Pyrrolo and pyrazolopyrimidines as ubiquitin-specific protease 7 inhibitors” (Forma Therapeutics, Inc., priority 2014, dated 2018)

Target: T1, USP7 (Homo sapiens, UniProt Q93009)
T1 construct: USP7, construct USP7 (208-1102) 6*His, Viva Biotech; 6xHis (C); purchased Viva Biotech
Test: USP7 Assay A (Ubitquin-Rhodamine 110 Assay)
Format: biochemical
Settings: USP7 activity in USP7 assay A and B (table does not say which assay per compound); read-out: USP7_IC50
How it was run: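 Enzyme and compound sat together for 30 min before Ub-Rh110 was added, in buffer of 20 mM Tris-HCl (pH 8.0), 1 mM GSH, 0.03% BGG and 0.01% Triton X-100.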

T1 sequence (Q93009 208-1102): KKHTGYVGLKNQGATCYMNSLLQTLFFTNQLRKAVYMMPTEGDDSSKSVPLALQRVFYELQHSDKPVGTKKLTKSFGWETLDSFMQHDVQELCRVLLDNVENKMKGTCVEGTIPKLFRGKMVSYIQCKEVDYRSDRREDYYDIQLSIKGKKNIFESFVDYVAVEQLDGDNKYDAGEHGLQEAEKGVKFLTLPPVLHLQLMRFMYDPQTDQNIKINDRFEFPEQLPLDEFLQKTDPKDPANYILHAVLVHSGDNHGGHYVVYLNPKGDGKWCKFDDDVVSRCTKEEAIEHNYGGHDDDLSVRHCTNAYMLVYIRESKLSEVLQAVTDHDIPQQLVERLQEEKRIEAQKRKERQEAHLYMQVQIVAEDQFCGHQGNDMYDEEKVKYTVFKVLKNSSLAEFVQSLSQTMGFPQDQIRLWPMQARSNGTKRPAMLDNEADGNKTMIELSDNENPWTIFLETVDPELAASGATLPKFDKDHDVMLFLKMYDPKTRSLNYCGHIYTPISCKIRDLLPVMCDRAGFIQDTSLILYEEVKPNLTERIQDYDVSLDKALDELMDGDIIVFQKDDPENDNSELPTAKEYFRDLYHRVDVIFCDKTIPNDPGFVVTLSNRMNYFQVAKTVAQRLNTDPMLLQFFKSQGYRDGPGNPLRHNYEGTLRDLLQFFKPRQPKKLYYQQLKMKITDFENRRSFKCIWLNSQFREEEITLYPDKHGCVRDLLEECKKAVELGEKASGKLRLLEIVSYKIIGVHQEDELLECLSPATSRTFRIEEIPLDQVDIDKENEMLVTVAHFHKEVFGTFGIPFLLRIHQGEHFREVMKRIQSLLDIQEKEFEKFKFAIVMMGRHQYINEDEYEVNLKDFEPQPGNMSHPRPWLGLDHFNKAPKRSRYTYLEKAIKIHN

Q: Which IC50 does the source give for `Cc1nnnn1-c1ccc(C(=O)N2CCC(O)(Cn3cnc4c(cnn4-c4ccc(Cl)cc4)c3=O)CC2)cc1` [Compound I-1089] here?
A: 200 to 1000 nM

Q: With `CC1(C(=O)N2CCC(O)(Cn3cnc4c(cnn4-c4cccc(N5CCC(F)(F)CC5)c4)c3=O)CC2)CC1` [Compound I-1675] as the compound, how does the IC50 read?
A: < 200 nM

Q: Which IC50 does the source give for `Cn1ncc2ccc(-c3ccc(-n4ncc5c(=O)n(CC6(O)CCN(C(=O)C7CC7)CC6)cnc54)cc3)cc21` [Compound I-1764] here?
A: 1000 to 10000 nM

Q: How did the IC50 turn out when `Cc1ccnc(-c2ccc(-n3ncc4c(=O)n(CC5(O)CCN(C(=O)C6CC6)CC5)cnc43)cc2)c1` [Compound I-1725] was run?
A: 1000 to 10000 nM

Q: With `O=C(c1cnc(N2CCC(O)CC2)o1)N1CCC(O)(Cn2cnc3c(cnn3-c3ccc(F)cc3)c2=O)CC1` [Compound I-915] as the compound, how does the IC50 read?
A: 1000 to 10000 nM

Q: `CC1(C(=O)N2CCC(O)(Cn3cnc4c(cnn4-c4ccc(-c5cnn(C6CCOCC6)c5)cc4)c3=O)CC2)CCC1` [Compound I-1719] was tested. Which IC50 did it give?
A: < 200 nM

Q: For `CC(C)(O)Cn1cc(-c2ccc(-n3ncc4c(=O)n(CC5(O)CCN(C(=O)c6ccc(F)cc6)CC5)cnc43)cc2)cn1` [Compound I-1617], which IC50 is on record?
A: 200 to 1000 nM

Q: For `O=C(C1CCC(Oc2ncccn2)CC1)N1CCC(O)(Cn2cnc3c(cnn3-c3ccc(F)cc3)c2=O)CC1` (centres unmarked) [Compound I-748], which IC50 is on record?
A: 200 to 1000 nM

Q: Which IC50 does the source give for `CC1(O)CCN(c2ccc(-n3ncc4c(=O)n(CC5(O)CCN(C(=O)c6ccc(F)cc6)CC5)cnc43)cc2)C1` (centres unmarked) [Compound I-1168] here?
A: 200 to 1000 nM

Q: For `CC1(C(=O)N2CCC(O)(Cn3cnc4c(cnn4-c4ccc(F)cc4)c3=O)CC2)CCC(Oc2ccccn2)CC1` (centres unmarked) [Compound I-746], which IC50 is on record?
A: 1000 to 10000 nM

Q: How did the IC50 turn out when `Cc1nccc(OC2CCC(C(=O)N3CCC(O)(Cn4cnc5c(cnn5-c5ccc(F)cc5)c4=O)CC3)CC2)n1` (centres unmarked) [Compound I-1016] was run?
A: 200 to 1000 nM

Q: For `O=C(C1CCC(OC2CCOCC2)CC1)N1CCC(O)(Cn2cnc3c(cnn3-c3ccc(F)cc3)c2=O)CC1` (centres unmarked) [Compound I-925], which IC50 is on record?
A: 1000 to 10000 nM

Q: For `O=C(C1CCC(Oc2cccnc2)CC1)N1CCC(O)(Cn2cnc3c(cnn3-c3ccc(F)cc3)c2=O)CC1` (centres unmarked) [Compound I-750], which IC50 is on record?
A: 200 to 1000 nM

Q: `Cc1nnc(-c2ccc(-n3ncc4c(=O)n(CC5(O)CCN(C(=O)c6ccc(F)cc6)CC5)cnc43)cc2)o1` [Compound I-712] was tested. Which IC50 did it give?
A: 1000 to 10000 nM

Q: How did the IC50 turn out when `O=C(c1ccc(Oc2ccccn2)cn1)N1CCC(O)(Cn2cnc3c(cnn3-c3ccc(F)cc3)c2=O)CC1` [Compound I-547] was run?
A: 1000 to 10000 nM

Q: With `O=C(c1cnn(C2CC2)c1)N1CCC(O)(Cn2cnc3c(cnn3-c3ccc(C4CC4)cc3)c2=O)CC1` [Compound I-798] as the compound, how does the IC50 read?
A: 200 to 1000 nM

Q: How did the IC50 turn out when `O=C(C1CCC(NC2CC2)CC1)N1CCC(O)(Cn2cnc3c(cnn3-c3ccc(F)cc3)c2=O)CC1` (centres unmarked) [Compound I-769] was run?
A: 200 to 1000 nM

Q: For `O=C(C1CC1)N1CCC(O)(Cn2cnc3c(cnn3-c3ccc(N4CCC(O)C4)cc3)c2=O)CC1` (centres unmarked) [Compound I-1655], which IC50 is on record?
A: 1000 to 10000 nM

Q: Which IC50 does the source give for `C[C@H]1CN(c2ccc(-n3ncc4c(=O)n(CC5(O)CCN(C(=O)C6(C)CC6)CC5)cnc43)cc2)CCN1C` [Compound I-1639] here?
A: < 200 nM

Q: `Cn1ccc(OC2CCC(C(=O)N3CCC(O)(Cn4cnc5c(ccn5-c5ccc(F)cc5)c4=O)CC3)CC2)n1` (centres unmarked) [Compound I-1067] was tested. Which IC50 did it give?
A: 200 to 1000 nM

Q: With `Cc1ncc(-c2ccc(C(=O)N3CCC(O)(Cn4cnc5c(cnn5-c5ccc(Cl)cc5)c4=O)CC3)cc2)n1C` [Compound I-1101] as the compound, how does the IC50 read?
A: 1000 to 10000 nM

Same assay, conditions: USP7 assay A and B (table does not say which assay per compound); read-out: USP7_IC50

Q: With `CN(C)CCOc1cc(-n2ncc3c(=O)n(CC4(O)CCN(C(=O)C5CC5)CC4)cnc32)ccc1-c1ccccc1` [Compound I-856] as the compound, how does the IC50 read?
A: 200 to 1000 nM

Q: How did the IC50 turn out when `O=C(C1CC1)N1CCC(O)(Cn2cnc3c(cnn3-c3ccc(NCC4CCOCC4)cc3)c2=O)CC1` [Compound I-1402] was run?
A: 1000 to 10000 nM

Q: `O=C(c1ccc(-c2ccc(-n3ncc4c(=O)n(CC5(O)CCN(C(=O)C6CC6)CC5)cnc43)cc2)cc1)N1CCCC1` [Compound I-333] was tested. Which IC50 did it give?
A: 1000 to 10000 nM

Q: Which IC50 does the source give for `N#Cc1cccc(COc2ccc(-n3ncc4c(=O)n(CC5(O)CCN(C(=O)c6ccc(F)cc6)CC5)cnc43)cc2)c1` [Compound I-1318] here?
A: 1000 to 10000 nM

Q: With `COc1ccc(Nc2ccc(-n3ncc4c(=O)n(CC5(O)CCN(C(=O)C6CC6)CC5)cnc43)cc2)cn1` [Compound I-1191] as the compound, how does the IC50 read?
A: 1000 to 10000 nM

Q: With `O=C(C1CC1)N1CCC(O)(Cn2cnc3c(cnn3-c3ccc(C4CCNCC4)cc3)c2=O)CC1` [Compound I-843, 5-((1-(cyclopropanecarbonyl)-4-hydroxypiperidin-4-yl)methyl)-1-(4-(piperidin-4-yl)phenyl)-1H-pyrazolo[3,4-d]pyrimidin-4(5H)-one] as the compound, how does the IC50 read?
A: 200 to 1000 nM

Q: For `CS(=O)(=O)Nc1ccc(-n2ncc3c(=O)n(CC4(O)CCN(C(=O)C5CC5)CC4)cnc32)cc1` [Compound I-1431], which IC50 is on record?
A: 1000 to 10000 nM

Q: `O=C(c1ccc(OC2CC2)cc1)N1CCC(O)(Cn2cnc3c(cnn3-c3ccc(F)cc3)c2=O)CC1` [Compound I-283] was tested. Which IC50 did it give?
A: 1000 to 10000 nM

Q: Which IC50 does the source give for `Cc1noc(C)c1S(=O)(=O)Nc1ccc(-n2ncc3c(=O)n(CC4(O)CCN(C(=O)C5CC5)CC4)cnc32)cc1` [Compound I-1421] here?
A: 1000 to 10000 nM

Q: With `O=C(C1CC1)N1CCC(O)(Cn2cnc3c(cnn3-c3ccc(CN4CCC5(CCOCC5)C4)cc3)c2=O)CC1` [Compound I-443] as the compound, how does the IC50 read?
A: 1000 to 10000 nM

Q: With `CC(CC(=O)N1CCC(O)(Cn2cnc3c(cnn3-c3ccc(-c4ccc(F)cc4)cc3)c2=O)CC1)n1cccn1` (centres unmarked) [Compound I-652] as the compound, how does the IC50 read?
A: 200 to 1000 nM

Q: For `C#CC(=O)NC1CC(C(=O)N2CCC(O)(Cn3cnc4c(cnn4-c4ccccc4)c3=O)CC2)C1` (centres unmarked) [Compound I-259], which IC50 is on record?
A: 1000 to 10000 nM

Q: For `Cn1ncc2c(=O)n(CC3(O)CCN(C(=O)c4ccc5c(c4)CCN(c4ccccc4)C5)CC3)cnc21` [Compound I-115], which IC50 is on record?
A: 1000 to 10000 nM

Q: Which IC50 does the source give for `CN(C)C(=O)c1ccc(-c2cccc(-n3ncc4c(=O)n(CC5(O)CCN(C(=O)C6CC6)CC5)cnc43)c2)cc1` [Compound I-350] here?
A: 1000 to 10000 nM

Q: How did the IC50 turn out when `O=C(C1CC1)N1CCC(O)(Cn2cnc3c(cnn3-c3cccc(-c4cccc5[nH]ccc45)c3)c2=O)CC1` [Compound I-406] was run?
A: 1000 to 10000 nM

Q: For `O=C(Nc1ccc(-n2ncc3c(=O)n(CC4(O)CCN(C(=O)C5CC5)CC4)cnc32)cc1)c1ccccn1` [Compound I-1383], which IC50 is on record?
A: 1000 to 10000 nM

Q: `O=C(c1ccc(F)c(Cl)c1)N1CCC(O)(Cn2cnc3c(cnn3-c3ccccc3)c2=O)CC1` [Compound I-210] was tested. Which IC50 did it give?
A: 1000 to 10000 nM

Q: `O=C(C1CC1)N1CCC(O)(Cn2cnc3c(cnn3-c3ccc(NS(=O)(=O)Cc4ccc(F)cc4)cc3)c2=O)CC1` [Compound I-1433] was tested. Which IC50 did it give?
A: 1000 to 10000 nM

Q: With `O=C(C1CC1)N1CCC(O)(Cn2cnc3c(cnn3-c3cccc(-c4cccc(O)c4)c3)c2=O)CC1` [Compound I-385] as the compound, how does the IC50 read?
A: 1000 to 10000 nM

Q: `O=C(Nc1ccc(F)cc1)c1ccc(-n2ncc3c(=O)n(CC4(O)CCN(C(=O)C5CC5)CC4)cnc32)cc1` [Compound I-1492] was tested. Which IC50 did it give?
A: 1000 to 10000 nM

Q: How did the IC50 turn out when `O=C(Nc1ccc(-n2ncc3c(=O)n(CC4(O)CCN(C(=O)C5CC5)CC4)cnc32)cc1)c1ccccc1F` [Compound I-1380] was run?
A: 1000 to 10000 nM

Q: `O=C(C1CC1)N1CCC(O)(Cn2cnc3c(cnn3-c3ccc(NCCc4ccccc4)cc3)c2=O)CC1` [Compound I-1187] was tested. Which IC50 did it give?
A: 1000 to 10000 nM

Q: How did the IC50 turn out when `O=C(C1CC1)N1CCC(O)(Cn2cnc3c(cnn3-c3cccnc3)c2=O)CC1` [Compound I-30] was run?
A: 1000 to 10000 nM

Q: Which IC50 does the source give for `C=CC(=O)N1CC[C@@H]1C(=O)N1CCC(O)(Cn2cnc3c(cnn3-c3ccc(F)cc3)c2=O)CC1` [Compound I-574] here?
A: 200 to 1000 nM

Q: With `O=C(c1cnc(C2CC2)o1)N1CCC(O)(Cn2cnc3c(cnn3-c3ccc(F)cc3)c2=O)CC1` [Compound I-314] as the compound, how does the IC50 read?
A: 200 to 1000 nM

Q: Which IC50 does the source give for `CNC(=O)N1CCC(O)(Cn2cnc3c(cnn3-c3ccc(-c4ccc(F)cc4)cc3)c2=O)CC1` [Compound I-655] here?
A: 1000 to 10000 nM
